# Source: patent US10206889B2, “Emesis treatment” (Repurposed Therapeutics, Inc., priority 2009, dated 2019)
# How the values were obtained:
# [1] = tested on: xylazine-induced emesis in cats; experiment: Xylazine-induced emesis in cats, with vomit scale and defensive behavior (anxiety) scoring; format: in vivo, cats (female domestic short-haired felines); settings: for level of anxiety 15 minutes after treatment / protection against xylazine-induced emesis / cats vomited: FIG. 1, female cats; for protection against xylazine-induced emesis / cats vomited: fifteen minutes before 0.66 mg/kg xylazine SC, observed 30 minutes; for Defensive Behavior Scale / Mean Defensive Score / % Protection (vomiting) / Mean Latency (mean latency to retch/vomit): cats; for % Protection (vomiting) / Mean Latency (mean latency to retch/vomit): 20 minutes before xylazine 0.66 mg/kg; for anxiety-inducing effect in test subjects / effectiveness in preventing (chemically-induced) emesis: summary statement of the description, no dose given, test subjects
# Method: (i) 0.9% sodium chloride vehicle (n=6);
# […], 0.66 mg/kg xylazine was administered subcutaneously, and the test subjects where then observed for 30 minutes.
# Cats not susceptible to motion sickness were assigned to the xylazine testing group. Xylazine stimulates receptors on a pathway different from that used by motion sickness and thus served as a test of the generality of anti-emetic effects observed with motion testing.
# Prior to the evaluation of anti-emetic compounds, the production of an emetic response by xylazine in felines was confirmed in the laboratory. Cats were injected subcutaneously with either a freshly prepared solution of 0.66 mg/kg of xylazine in 0.9% sodium chloride or 0.9% sodium chloride vehicle, both adjusted to an injection volume of 0.1 ml/kg.
# One week following the confirmation of an emetic response by the cats, subject cats were given either vehicle or test compound/composition in 0.9% sodium chloride or vehicle (injection volume of 0.1 ml/kg) subcutaneously, 20 minutes before administration of xylazine. […] Animals were scored using the vomit scale developed by Sufi et al., 1979. Additional experiments were separated by at least a 1 week washout period.
# A. Vomit Scale Scoring: • 1. Sal I (licking—parasympathetic): 1 pt • 2. Sal II (drool, thin/frothy—early sympathetic): 2 pts • 3. Sal III (stringy saliva, dangles—sympathetic): 4 pts • 4. Defection: 8 pts • 5. Urination: 8 pts • 6. Wretch/vomiting: 16 pts
# B. Defensive Behavior Scale: • 1. No defensiveness: normal behavior; • 2. Slight defensiveness: retreating to the rear of the cage when approached and/or growling when being carried; • 3. […] Strong defensiveness: vigorous clawing and biting to prevent being handled. V. Statistical Methods
# Dose response curves were analyzed by Cochran's Q-test to establish significant effects. Paired comparisons were made using McNemar's test. Tests for line parallelism, relative potency and ED50 were based on least squares regression in a program for pharmacological statistics. The data from the nonparametric rating scale was analyzed using Friedman's analysis of variance model (ANOVA).
# [2] = molecular target: T1, 5-HT1A receptor (Human Ligand) (Homo sapiens, UniProt P08908); experiment: 5-HT1A cellular function, antagonist; format: cell-based
# T1 sequence (P08908 1-422): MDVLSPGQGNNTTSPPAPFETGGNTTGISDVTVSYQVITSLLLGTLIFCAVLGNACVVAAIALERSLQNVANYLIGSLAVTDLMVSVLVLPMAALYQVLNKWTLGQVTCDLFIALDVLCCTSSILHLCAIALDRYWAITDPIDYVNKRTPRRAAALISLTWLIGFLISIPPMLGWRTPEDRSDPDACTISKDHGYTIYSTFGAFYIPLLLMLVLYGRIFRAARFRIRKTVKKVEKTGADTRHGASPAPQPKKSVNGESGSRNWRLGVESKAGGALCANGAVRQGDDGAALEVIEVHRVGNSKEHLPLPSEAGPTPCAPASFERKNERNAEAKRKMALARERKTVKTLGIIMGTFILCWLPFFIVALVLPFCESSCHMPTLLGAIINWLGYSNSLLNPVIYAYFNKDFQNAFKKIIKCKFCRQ
# [3] = molecular target: T1, 5-HT1A receptor (Human Ligand); experiment: 5-HT1A cellular function, agonist; format: cell-based
# Method: The percent of control agonist response was recorded for several log concentrations of compounds/compositions.
# [4] = molecular target: T2, rat ligand of the 5-HT1A receptor (Rattus norvegicus, UniProt P19327); settings: Cornfield 1991, Hadrava 1996, Dabrowska 2006; cited from earlier work
# T2 sequence (P19327 1-422): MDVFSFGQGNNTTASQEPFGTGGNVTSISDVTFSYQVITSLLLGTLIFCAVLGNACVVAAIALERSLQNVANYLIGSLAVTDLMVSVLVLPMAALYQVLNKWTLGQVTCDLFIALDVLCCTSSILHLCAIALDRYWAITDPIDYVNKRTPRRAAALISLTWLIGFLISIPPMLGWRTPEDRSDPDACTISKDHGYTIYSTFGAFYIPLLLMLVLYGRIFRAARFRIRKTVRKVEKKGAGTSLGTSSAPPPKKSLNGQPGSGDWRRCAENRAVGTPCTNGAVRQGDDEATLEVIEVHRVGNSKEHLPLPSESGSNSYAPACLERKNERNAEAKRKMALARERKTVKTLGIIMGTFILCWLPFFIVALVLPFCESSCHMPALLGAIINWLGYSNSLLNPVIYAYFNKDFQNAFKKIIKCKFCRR
SMILES,Defensive Behavior Scale ([1]; dose 0.16 mg/kg SC),Mean Defensive Score ([1]; dose 0.16 mg/kg SC),% Protection (vomiting) ([1]; dose 0.16 mg/kg SC),Mean Latency (mean latency to retch/vomit) ([1]; dose 0.16 mg/kg SC),"Cellular Function Antagonist (IC50, nM) [2]",level of anxiety 15 minutes after treatment ([1]; 0.08 mg/kg SC),cats vomited ([1]; 0.08 mg/kg SC),Defensive Behavior Scale ([1]; dose 0.08 mg/kg SC),Mean Defensive Score ([1]; dose 0.08 mg/kg SC),% Protection (vomiting) ([1]; dose 0.08 mg/kg SC),Mean Latency (mean latency to retch/vomit) ([1]; dose 0.08 mg/kg SC),anxiety-inducing effect in test subjects [1],effectiveness in preventing (chemically-induced) emesis [1],type of agonism at the 5-HT1A receptor (previous findings) [4],also measured
"CCCN(CCC)C1CCc2cccc(O)c2C1 (racemic) [R/S-(+/−)-DPAT, (±)-8-Hydroxy-2-(dipropylamino)tetralin]",Moderate,2.0,100.00%,0.0 min,Inactive,,,,,,,,,,level of anxiety 15 minutes after treatment ([1]; 0.16 mg/kg SC): moderate level of anxiety; protection against xylazine-induced emesis ([1]; 0.16 mg/kg SC): 100%
"CCCN(CCC)[C@@H]1CCc2cccc(O)c2C1 [R-(+)-DPAT, R(+)-8-hydroxy-2-(dipropylamino)tetralin]",,,,,Inactive,extreme level of anxiety,none of the cats vomited,Strong,3.0,100.00%,0.00 min,moderate to strong,100%,full agonist,Cellular Function Agonist: type of agonism ([3]; listed as R(+)-8-OH-DPAT): Full Agonist; Defensive Behavior Scale ([1]; dose 0.02 mg/kg SC): Moderate; Mean Defensive Score ([1]; dose 0.02 mg/kg SC): 2.0; % Protection (vomiting) ([1]; dose 0.02 mg/kg SC): 100.00%; Mean Latency (mean latency to retch/vomit) ([1]; dose 0.02 mg/kg SC): 0.00 min; Defensive Behavior Scale ([1]; dose 0.04 mg/kg SC): Strong; Mean Defensive Score ([1]; dose 0.04 mg/kg SC): 3.0; % Protection (vomiting) ([1]; dose 0.04 mg/kg SC): 100.00%; Mean Latency (mean latency to retch/vomit) ([1]; dose 0.04 mg/kg SC): 0.00 min
"CCCN(CCC)[C@H]1CCc2cccc(O)c2C1 [S-(−)-DPAT, S(−)-8-hydroxy-2-(dipropylamino)tetralin]",None,0.0,85.71%,0.82 min,Inactive,did not show any anxiety,40%,None,0.0,75.00%,1.58 min,no anxiety or only slight anxiety,not fully effective,partial agonist,Cellular Function Agonist: type of agonism ([3]; listed as S(−)-8-OH-DPAT): Full Agonist; protection against xylazine-induced emesis ([1]; 0.08 mg/kg SC): 60%; Defensive Behavior Scale ([1]; dose 0.32 mg/kg SC): Slight; Mean Defensive Score ([1]; dose 0.32 mg/kg SC): 1.0; % Protection (vomiting) ([1]; dose 0.32 mg/kg SC): 80.00%; Mean Latency (mean latency to retch/vomit) ([1]; dose 0.32 mg/kg SC): 1.00 min
